# Assay results published in ChEMBL document CHEMBL5335831, “Total Synthesis of a TNBC-Selective Cytotoxic Bromo Nor-eremophilane, PC-A, and Its Preliminary Structure-Activity Relationships” (J Nat Prod, 2024).
# The source made the active and inactive calls. The calls are words filed in the database; no cut-off is given here.
# Experiments:
# A549 = experiment: Antiproliferative activity against human A549 cells assessed as cell growth inhibition incubated for 72 hrs by sulforhodamine B assay; assay type: functional, cell-based; conditions: A549, 72 h
# MCF7 = experiment: Antiproliferative activity against human MCF7 cells assessed as cell growth inhibition incubated for 72 hrs by sulforhodamine B assay; assay type: functional, cell-based; conditions: MCF7, 72 h
# MDA-MB-231 [1] = experiment: Induction of cell cycle arrest in human MDA-MB-231 cells assessed as accumulation of cells at G2/M phase at IC50 incubated for 24 hrs by propidium iodide staining based flow cytometry; assay type: functional
# [2] = Antiproliferative activity against human KB-VIN cells assessed as cell growth inhibition incubated for 72 hrs by sulforhodamine B assay; assay type: functional, cell-based; conditions: KBVIN
# MDA-MB-231 [3] = experiment: Induction of cell cycle arrest in human MDA-MB-231 cells assessed as accumulation of cells at G2/M phase at IC50 x 8 incubated for 24 hrs by propidium iodide staining based flow cytometry; assay type: functional
# MDA-MB-231 [4] = experiment: Antiproliferative activity against human MDA-MB-231 cells assessed as cell growth inhibition incubated for 72 hrs by sulforhodamine B assay; assay type: functional, cell-based; conditions: MDA-MB-231, 72 h
# KB = experiment: Antiproliferative activity against human KB cells assessed as cell growth inhibition incubated for 72 hrs by sulforhodamine B assay; assay type: functional, cell-based
# MDA-MB-231 [5] = experiment: Induction of cell cycle arrest in human MDA-MB-231 cells assessed as accumulation of cells at sub-G1 phase at 8 x IC50 incubated for 24 hrs by propidium iodide staining based flow cytometry; assay type: functional
# MDA-MB-231 [6] = experiment: Induction of nuclear fragmentation in human MDA-MB-231 cells at 8 x IC50 incubated for 24 hrs by propidium iodide staining based flow cytometry; assay type: functional, cell-based
Structure (SMILES),IC50 (A549),IC50 (MCF7),Activity (MDA-MB-231 [1]),IC50 [2],Activity (MDA-MB-231 [3]),IC50 (MDA-MB-231 [4]),IC50 (KB),Activity (MDA-MB-231 [5]),Activity (MDA-MB-231 [6])
CC(=O)C1=C(O)C=C2C(Br)=C[C@H](O)[C@H](C)[C@@]2(C)C1,19 µM,13 µM,Active,18 µM,Active,5.2 µM,15 µM,–,–
CC(=O)C1=C(O)C=C2C(Br)=CC(=O)[C@H](C)[C@@]2(C)C1,7.9 µM,6.9 µM,Active,8 µM,–,5.3 µM,5 µM,–,–
CC(=O)C1=C(O)C=C2C=CC(=O)[C@H](C)[C@@]2(C)C1,29 µM,16 µM,–,26 µM,–,31 µM,9.5 µM,–,–
C[C@H]1[C@H](O)C=C(Br)C2=CC(=O)CC[C@@]21C,35 µM,36 µM,–,37 µM,–,32 µM,29 µM,–,–
C[C@H]1C(=O)C=C(Br)C2=CC(=O)CC[C@@]21C,25 µM,17 µM,Active,19 µM,–,6.4 µM,18 µM,Active,Active
C[C@H]1[C@H](O)C=CC2=CC(=O)CC[C@@]21C,> 40 µM,> 40 µM,–,> 40 µM,–,> 40 µM,32 µM,–,–
C[C@H]1C(=O)C=CC2=CC(=O)CC[C@@]21C,> 40 µM,> 40 µM,–,> 40 µM,–,> 40 µM,> 40 µM,–,–
CC(=O)C1=C(O)C=C2C=C[C@H](O)[C@H](C)[C@@]2(C)C1,> 40 µM,> 40 µM,–,> 40 µM,–,> 40 µM,> 40 µM,–,–
CC(=O)O[C@H]1C(=O)[C@@]2(C)[C@H]([C@H](OC(=O)c3ccccc3)[C@]3(O)C[C@H](OC(=O)[C@H](O)[C@@H](NC(=O)c4ccccc4)c4ccccc4)C(C)=C1C3(C)C)[C@]1(OC(C)=O)CO[C@@H]1C[C@@H]2O [PACLITAXEL],0.0054 µM,0.011 µM,–,2.4 µM,–,–,–,–,–
